Patent US12226412B2, “Heteroaryl-ketone fused azadecalin glucocorticoid receptor modulators” (Corcept Therapeutics, Inc., priority 2012, dated 2025)
Where two headings read alike, the source gives them in different places.

What was measured:
[1] = biological target: T1, human recombinant GR (Homo sapiens, UniProt P04150); test: Human glucocorticoid receptor (GR) fluorescence polarisation (FP) binding assay
T1 construct: purchased PanVera P2812
T1 sequence (P04150 1-777): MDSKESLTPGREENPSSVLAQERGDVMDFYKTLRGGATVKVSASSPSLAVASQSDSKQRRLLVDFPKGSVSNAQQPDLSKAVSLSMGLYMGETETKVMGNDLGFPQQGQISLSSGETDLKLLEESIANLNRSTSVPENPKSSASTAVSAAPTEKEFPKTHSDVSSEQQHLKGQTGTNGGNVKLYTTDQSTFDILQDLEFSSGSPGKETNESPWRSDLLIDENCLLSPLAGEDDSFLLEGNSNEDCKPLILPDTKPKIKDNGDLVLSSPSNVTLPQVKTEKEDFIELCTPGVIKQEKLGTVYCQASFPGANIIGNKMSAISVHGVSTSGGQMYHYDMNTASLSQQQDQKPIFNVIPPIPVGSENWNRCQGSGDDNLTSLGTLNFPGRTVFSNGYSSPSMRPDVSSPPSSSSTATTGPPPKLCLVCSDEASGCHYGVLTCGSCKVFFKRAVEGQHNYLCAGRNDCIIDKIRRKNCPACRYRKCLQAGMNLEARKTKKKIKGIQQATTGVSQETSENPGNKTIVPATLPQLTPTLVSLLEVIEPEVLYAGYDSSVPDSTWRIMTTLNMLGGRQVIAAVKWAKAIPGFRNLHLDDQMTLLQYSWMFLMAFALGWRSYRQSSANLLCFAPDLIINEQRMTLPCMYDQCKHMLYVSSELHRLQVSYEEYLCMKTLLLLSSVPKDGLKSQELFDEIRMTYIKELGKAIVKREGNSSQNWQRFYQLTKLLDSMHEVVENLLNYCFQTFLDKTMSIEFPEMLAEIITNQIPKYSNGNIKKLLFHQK
Protocol: Human Glucocorticoid Receptor (GR) Fluorescence Polarisation (FP) Binding Assay
The following is a description of a FP assay for measuring compound inhibition of labelled glucocorticoid binding to the human recombinant GR.
The binding affinity of test compounds was determined using a FP binding assay using human recombinant GR (PanVera P2812) and a fluorescent labelled glucocorticoid ligand (Fluorome GS Red) (PanVera P2894). The presence of inhibitors prevents the formation of a GS Red/GR complex resulting in a decrease in the measured polarisation value. The change in polarisation value in the presence of test compounds is used to calculate the binding affinity of the compound for GR.
This assay was performed in 384 well, black, round-bottom, polypropylene micro titre plates in a final volume of 20 μl. The assay contained 5 μl 1 nM GR (final concentration), 5 μl 0.5 nM Fluorome GS Red (final concentration) in the presence of 10 μl test compounds. Positive control wells (high polarisation) receive, 10 μl 2% (v: v) DMSO vehicle (1% (v/v) final concentration)+5 μl 1 nM GR and 5 μl 0.5 nM Fluorome GS Red. […] Assay blank background wells (used for normalisation) receive 15 μl 1× GS screening buffer+5 μl GR.
Compounds were prepared as solubilised solids at 10 mM in DMSO. On the day of assay, an 8 point half-log serial dilution (55 μl DMSO+25 μl compound solution) was prepared. A 1:50 dilution (1 μl compound solution+49 μl 1× GR screening buffer) was prepared for each compound. The compounds were prepared at 2× final assay concentration.
The plates were mixed and incubated for 4 hour at room temperature.
10× GR screening buffer (100 mM potassium phosphate pH 7.4, 200 mM Na2MoO4, 1 mM EDTA, 20% (v/v) DMSO). To prepare 1× GR screening buffer, combine 1 ml 10× GR screening buffer (PanVera P2814)+1 ml stabilising peptide (PanVera P2815)+7.95 ml 4° C. MQ water. Add 50 μl 1M DTT, vortex and place on ice until use.

[2] = tested on: induction of TAT by dexamethasone in HepG2 cells; test: HepG2 tyrosine aminotransferase (TAT) assay; format: cell-based, human
Protocol: Example 21. HepG2 Tyrosine Aminotransferase (TAT) Assay
Glucocorticoid mediated activation of TAT occurs by transactivation of glucocorticoid response elements in the TAT promoter by glucocorticoid receptor agonist complex.
TAT activity was measured as outlined in the literature by A. Ali et al., J. Med. Chem., 2004, 47, 2441-2452.
HepG2 cells were cultured using MEME media supplemented with 10% (v/v) foetal bovine serum; 2 mM L-glutamine and 1% (v/v) NEAA at 37° C., 5%/95% (v/v) CO2/air. The HepG2 cells were counted and adjusted to yield a density of 0.125×10^6 cells/ml in RPMI 1640 without phenol red, 10% (v/v) charcoal stripped FBS, 2 mM L-glutamine and seeded at 25,000 cells/well in 200 μl into 96 well, sterile, tissue culture micro titre plates, and incubated at 37° C., 5% CO2 for 24 hours
Growth media was removed and replaced with assay media {RPMI 1640 without phenol red, 2 mM L-glutamine+10 μM forskolin}. […] Compounds were serially half log diluted in 100% (v/v) dimethylsupfoxide from a 10 mM stock.
HepG2 cells were then lysed with 30 μl of cell lysis buffer containing a protease inhibitor cocktail for 15 minutes at 4° C. 155 μl of substrate mixture was then added containing 5.4 mM Tyrosine sodium salt, 10.8 mM alpha ketoglutarate and 0.06 mM pyridoxal 5′ phosphate in 0.1M potassium phosphate buffer (pH 7.4). After 2 hours incubation at 37° C. the reaction was terminated by the addition of 15 μl of 10M aqueous potassium hydroxide solution, and the plates incubated for a further 30 minutes at 37° C. The TAT activity product was measured by absorbance at […].
[compound] and fitting the data to a 4 parameter logistic equation.

[3] = human recombinant GR, fluorescence polarisation binding assay, read-out: GR binding
[4] = HepG2 cells, challenge of 100 nM dexamethasone, Ki from IC50 by Cheng and Prusoff equation

| SMILES | Ki [1, 3] [nM] | Ki [2, 4] [nM] | Ki [1] [nM] | Ki [2] [nM] |
| --- | --- | --- | --- | --- |
| O=C(c1nccs1)[C@]12Cc3cnn(-c4ccc(F)cc4)c3C=C1CCN(S(=O)(=O)CC1CCCO1)C2 (mixture of isomers) [Example 2B, ((4a R)-1-(4-fluorophenyl)-6-((((R/S)-tetrahydrofuran-2-yl)methyl)sulfonyl)-4,4a,5,6,7,8-hexahydro-1H-pyrazolo[3,4-g]isoquinolin-4a-yl)(thiazol-2-yl)methanone] | 0.5 to 1 | ≥ 100 | – | – |
| Cn1ncc(S(=O)(=O)N2CCC3=Cc4c(cnn4-c4ccc(F)cc4)C[C@]3(C(=O)c3cscn3)C2)n1 (single isomer, unassigned) [Example 11DA] | < 0.5 | < 20 | – | – |
| Cn1ncc(S(=O)(=O)N2CCC3=Cc4c(cnn4-c4ccc(F)cc4)C[C@]3(C(=O)c3ccccn3)C2)n1 (single isomer, unassigned) [Example 11DB] | < 0.5 | < 20 | – | – |
| CCCn1ncc(S(=O)(=O)N2CCC3=Cc4c(cnn4-c4ccc(F)cc4)C[C@]3(C(=O)c3cc(C(F)(F)F)ccn3)C2)n1 (single isomer, unassigned) [Example 11DC] | 0.5 to 1 | < 20 | – | – |
| CCCn1ncc(S(=O)(=O)N2CCC3=Cc4c(cnn4-c4ccc(F)cc4)C[C@]3(C(=O)c3nccs3)C2)n1 (single isomer, unassigned) [Example 12AA] | < 0.5 | 20 to 100 | – | – |
| Cn1ncc(S(=O)(=O)N2CCC3=Cc4c(cnn4-c4ccc(F)cc4)C[C@]3(C(=O)c3nccs3)C2)n1 (single isomer, unassigned) [Example 12Z] | < 0.5 | ≥ 100 | – | – |
| O=C(c1ccccn1)[C@]12Cc3cnn(-c4ccc(F)cc4)c3C=C1CCN(S(=O)(=O)c1ccc(C(F)(F)F)cc1)C2 [Example 1, (R)-(1-(4-fluorophenyl)-6-((4-(trifluoromethyl)phenyl)sulfonyl)-4,4a,5,6,7,8-hexahydro-1H-pyrazolo[3,4-g]isoquinolin-4a-yl)(pyridin-2-yl)methanone] | – | – | < 0.5 | < 20 |
| Cn1ccnc1C(=O)[C@]12Cc3cnn(-c4ccc(F)cc4)c3C=C1CCN(S(=O)(=O)c1ccc(C(F)(F)F)cc1)C2 [Example 1A, (R)-(1-(4-fluorophenyl)-6-((4-(trifluoromethyl)phenyl)sulfonyl)-4,4a,5,6,7,8-hexahydro-1H-pyrazolo[3,4-g]isoquinolin-4a-yl)(1-methyl-1H-imidazol-2-yl)methanone] | 0.5 to 1 | 20 to 100 | – | – |
| O=C(c1cccnc1)[C@]12Cc3cnn(-c4ccc(F)cc4)c3C=C1CCN(S(=O)(=O)c1ccc(C(F)(F)F)cc1)C2 [Example 1B, (R)-(1-(4-fluorophenyl)-6-((4-(trifluoromethyl)phenyl)sulfonyl)-4,4a,5,6,7,8-hexahydro-1H-pyrazolo[3,4-g]isoquinolin-4a-yl)(pyridin-3-yl)methanone] | – | – | 0.5 to 1 | > 100 |
| O=C(c1nccs1)[C@]12Cc3cnn(-c4ccc(F)cc4)c3C=C1CCN(S(=O)(=O)c1ccc(C(F)(F)F)cc1)C2 [Example 1C, (R)-(1-(4-fluorophenyl)-6-((4-(trifluoromethyl)phenyl)sulfonyl)-4,4a,5,6,7,8-hexahydro-1H-pyrazolo[3,4-g]isoquinolin-4a-yl)(thiazol-2-yl)methanone] | – | – | < 0.5 | < 20 |
| Cc1nnc(C(=O)[C@]23Cc4cnn(-c5ccc(F)cc5)c4C=C2CCN(S(=O)(=O)c2ccc(C(F)(F)F)cc2)C3)o1 [Example 1D, (R)-(1-(4-fluorophenyl)-6-((4-(trifluoromethyl)phenyl)sulfonyl)-4,4a,5,6,7,8-hexahydro-1H-pyrazolo[3,4-g]isoquinolin-4a-yl)(5-methyl-1,3,4-oxadiazol-2-yl)methanone] | > 1 | ≥ 100 | – | – |
| O=C(c1cocn1)[C@]12Cc3cnn(-c4ccc(F)cc4)c3C=C1CCN(S(=O)(=O)c1ccc(C(F)(F)F)cc1)C2 [Example 1E, (R)-(1-(4-fluorophenyl)-6-((4-(trifluoromethyl)phenyl)sulfonyl)-4,4a,5,6,7,8-hexahydro-1H-pyrazolo[3,4-g]isoquinolin-4a-yl)(oxazol-4-yl)methanone] | – | 20 to 100 | < 0.5 | – |
| O=C(c1ncco1)[C@]12Cc3cnn(-c4ccc(F)cc4)c3C=C1CCN(S(=O)(=O)c1ccc(C(F)(F)F)cc1)C2 [Example 1F, (R)-(1-(4-fluorophenyl)-6-((4-(trifluoromethyl)phenyl)sulfonyl)-4,4a,5,6,7,8-hexahydro-1H-pyrazolo[3,4-g]isoquinolin-4a-yl)(oxazol-2-yl)methanone] | < 0.5 | 20 to 100 | – | – |
| O=C(c1ccco1)[C@]12Cc3cnn(-c4ccc(F)cc4)c3C=C1CCN(S(=O)(=O)c1ccc(C(F)(F)F)cc1)C2 [Example 1G, (R)-(1-(4-fluorophenyl)-6-((4-(trifluoromethyl)phenyl)sulfonyl)-4,4a,5,6,7,8-hexahydro-1H-pyrazolo[3,4-g]isoquinolin-4a-yl)(furan-2-yl)methanone] | – | – | < 0.5 | 20 to 100 |
| O=C(c1ccccn1)[C@]12Cc3cnn(-c4ccc(F)cc4)c3C=C1CCN(S(=O)(=O)c1cncc(N3CCCCC3)c1)C2 [Example 10A, (R)-(1-(4-fluorophenyl)-6-((5-(piperidin-1-yl)pyridin-3-yl)sulfonyl)-4,4a,5,6,7,8-hexahydro-1H-pyrazolo[3,4-g]isoquinolin-4a-yl)(pyridin-2-yl)methanone] | < 0.5 | – | – | – |
| Cc1cnc(C(=O)[C@]23Cc4cnn(-c5ccc(F)cc5)c4C=C2CCN(S(=O)(=O)c2ccc(Cl)c(Cl)c2)C3)s1 [Example 12O, (R)-(6-((3,4-dichlorophenyl)sulfonyl)-1-(4-fluorophenyl)-4,4a,5,6,7,8-hexahydro-1H-pyrazolo[3,4-g]isoquinolin-4a-yl)(5-methylthiazol-2-yl)methanone] | < 0.5 | – | – | – |
| Cn1cc(S(=O)(=O)N2CCC3=Cc4c(cnn4-c4ccc(F)cc4)C[C@]3(C(=O)c3ccccn3)C2)ccc1=O [Example 17, (R)-5-((1-(4-fluorophenyl)-4a-picolinoyl-4a,5,7,8-tetrahydro-1H-pyrazolo [3,4-g]isoquinolin-6 (4H)-yl)sulfonyl)-1-methylpyridin-2 (1H)-one] | – | ≥ 100 | – | – |
